pIC50: −log10 of the molar value. Entries after “also recorded” stand apart in the source; their conditions may differ.

In assay [1] the test system is mouse-derived MYC-induced RCC E28 line. Briefly: RCC E28 proliferation / cell viability (FIG. 7, 10B, 12B). The format is cell-based. The method, then: (§1) Cell Counting. A volume of cells was removed from culture medium and mixed with an equal volume of 0.4% Trypan blue stain. Then, 10 μL were taken out and placed into a hemocytometer for cell counting. Viable cell counts were used as a measure of cell proliferation.
(§2) All RCC cell lines were maintained in Dulbecco's Modified Eagle Medium (DMEM) supplemented with 10% fetal bovine serum (FBS), 1% L-glutamine, 1% sodium pyruvate, 1% nonessential amino acids, and Antibiotic-Antimycotic. All lymphoma lines were maintained in RPMI 1640 medium supplemented with 10% FBS, 50 μM β-mercaptoethanol, and […]

Assay [2] concerns the target glycerol 3-phosphate acyltransferase (GPAT). The conditions noted are these: inhibitor of GPAT; cited from earlier work.
In assay [3] the test system is mouse derived MYC-induced HCC EC4 line. Briefly: HCC EC4 proliferation / cell viability (FIG. 8, 9, 12A). Format: cell-based. The conditions noted are these: for cell viability as compared to FSG67: HCC EC4, 1-100 μM dose, two days (48 hours) post treatment. The method, then:
as §1

Assay [4] deals with mouse-derived T-ALL line. The assay can be described thus: Response in mouse-derived T-ALL line at high, low or no MYC (FIG. 6). Format: cell-based. Particulars: 1-100 μM; MYC levels controlled by doxycycline-off system. The method, then: as §1, §2
Assay [5] concerns fatty acids and PGs. Briefly: Lipid profile after TOFA or FSG67 (FIG. 11). More on the design: species or system mouse. The method, then: DESI-MSI was used for generating two-dimensional chemical maps of 16 μm-thick tissue sections in order to assess the lipid profiles of tissue. The tissue samples were snap-frozen in liquid nitrogen and stored at −80° C. before processing. The frozen samples were cut into 16 μm sections at −21° C. using a cryomicrotome and thaw-mounted onto microscope slides. The slides were stored at −80° C. Prior to analysis, the slides were dried under a vacuum in a desiccator for approximately 20 minutes. A laboratory-built DESI-MSI source coupled to an LTQ-Orbitrap-XL mass spectrometer (Thermo Fisher Scientific) was utilized, and DESI-MSI was performed in the negative ion mode at m/z 90-1,000 with a spatial resolution of 200 μm (FIG. S1). The Orbitrap was used as the mass analyzer while set to 60,000 resolving power. Mouse tissue samples were imaged by this method using dimethylformamide and acetonitrile (1:1) as a solvent system at a flow rate of 0.5 μL/min. The N2 pressure was set to 175 psi. In DESI-MSI, charged solvents are sprayed onto the tissue, resulting in molecules, such as metabolites and lipids, to be dissolved and extracted from the tissue surface, then transferred into a mass spectrometer for measurement of the mass-to-charge (m/z) ratios. The software ImgGenerator (freeware, www.msimaging.net/) was used for converting raw files into 2D images. Spatially accurate ion images were assembled using BioMap software (freeware, www.maldi-msi.org/). After DESI-MSI, the same tissue section was subjected to a standard H&E staining for histopathologic evaluation using light microscopy. DESI-MS ion images were compared with optical microscopy images of the same-tissue H&E-stained tissue sections for delineation of tumor foci. Tandem MS analyses were performed using both the Orbitrap and the linear ion trap for mass analysis to confirm lipid identity. The LipidMaps database (www.lipidmaps.org/) was also used to assist in lipid identification.

The test system of assay [6] is MYC-induced tumors. The assay can be described thus: MYC-induced tumors in xenograft and primary mouse models. Format: in vivo. The text has this: A Tet system was used to conditionally activate MYC, in the liver, kidney, lymphocyte, and lung tissue of transgenic mice. In this system, […] In the absence of tetracycline, transcription of the oncogene is activated. Oncogene expression was activated in mice by removal of doxycycline (a stable analog of tetracycline) in the mice's drinking water. All animal studies were approved by the Stanford University Administrative Panel on Laboratory Animal Care (APLAC).

The test system of assay [7] is human lymphoma lines. Briefly: Proliferation of human lymphoma lines (FIG. 5). Particulars: 1-100 μM, 24 hours, various human lymphoma lines. Format: cell-based. The method, then:
as §1, §2

The subject of assay [8] is diet-induced obese mice. Particulars: cited from earlier work.
The subject of assay [9] is human MYC-induced Burkitt's Lymphoma line P493. The assay can be described thus: BCL P493 cell viability (FIG. 10A, 12C). Format: cell-based. Particulars: BCL P493, 1-100 μM dose, five days post treatment. The method, then: as §1, §2

With `CCCCCCCCCS(=O)(=O)Nc1ccccc1C(=O)O` [FSG67, 2-(Nonylsulfonamido) benzoic acid], the “RCC E28 proliferation” value in assay [1] (1-100 μM) is on record as “suppresses RCC E28 proliferation”. Also, the pIC50 in assay [2] was 4.62. Also, in assay [3] (1-100 μM), the “HCC EC4 proliferation” value is reported as “suppresses HCC EC4 proliferation”. Also, in assay [4], the “therapeutic response, high MYC vs. low or no MYC” value was “induces therapeutic response in high MYC (no dox) vs. low or no MYC; also recorded: induced a therapeutic response in high MYC (no dox)”. Besides, in assay [5], the “depletion of lipids (fatty acids, PGs)” value is on record as “depletes only PGs” and the “levels of fatty acids upstream of GPAT (oleate)” value was “not perturbing levels of fatty acids that are upstream of GPAT”. In [6], the MYC-induced tumorigenesis result was “MYC-induced tumorigenesis was blocked”, the metabolic changes entry is “metabolic changes were suppressed” and the tumor regression result is given as “tumors regressed”. In addition, in [7], the cell proliferation entry is “suppresses cell proliferation”. Also, in [8], the “body weight and adiposity” value was “decrease body weight and adiposity”; the “energy utilization as fatty acid oxidation” value is “enhance energy utilization as fatty acid oxidation”; the food intake result is recorded as “reduce food intake”; the hepatic steatosis entry was “reverse hepatic steatosis”. For the same compound, in assay [8], the insulin sensitivity entry is reported as “enhance insulin sensitivity”.
`[2H]c1c([2H])c([2H])c(C(=O)O)c(NS(=O)(=O)CCCCCCCCC)c1[2H]` [GFZ1.1]: the “cell viability as compared to FSG67” value in [3] is on record as “significant difference in cell viability”.
Same read-out and setting: in the case of `[2H]C([2H])([2H])C([2H])([2H])C([2H])([2H])C([2H])([2H])C([2H])([2H])C([2H])([2H])C([2H])([2H])C([2H])([2H])C([2H])([2H])S(=O)(=O)Nc1ccccc1C(=O)OC` [GFZ1.2] it was “significant difference in cell viability”.
Take `CCCCCCCCCS(=O)(=O)Nc1ccccc1C(=O)OC` [GFZ1.5]: the “cell viability as compared to FSG67” value in assay [1] (RCC E28, 1-100 μM dose, two days (48 hours) post treatment) was “significant difference in cell viability”; in assay [9], “significant difference in cell viability”; in assay [3] it was “significant difference in cell viability”.
Regarding `CCCCCCCCCCCCCCOc1ccc(C(=O)O)o1` [TOFA], the “depletion of lipids (fatty acids, PGs)” value in assay [5] is “depletes all fatty acids”.

A word on the pIC50: it is the IC50 on a negative log10 scale, so that one unit is a factor of ten.

(Values after patent US11702394B2, “Inhibitors of phospholipid synthesis and methods of use” (The Board of Trustees of the Leland Stanford Junior …, priority 2018, dated 2023).)
